Publication PMC12088962, “Design, synthesis, and biological investigation of new thiazole-based derivatives as multi-targeted inhibitors endowed with antiproliferative, antioxidant, and antibacterial properties” (Frontiers in Chemistry, 2025)
In brackets after ≈: the same amount, converted by molar mass.

Legend:
E. coli DNA gyrase = E. coli DNA gyrase (Escherichia coli, UniProt P0AES6); assay: DNA gyrase supercoiling assay; assay type: biochemical; details: for remaining activity at 1 µM: read-out: RA (residual activity of the enzyme), E. Coli DNA gyrase
Experimental: 4.2.3. Determination of Inhibitory Activities on E. coli DNA Gyrase.
All the final compounds were tested for E. coli DNA gyrase inhibitory activity in a supercoiling assay. Activities were determined on streptavidin -coated 96-well microtiter plates from Thermo scientific Pierce. First, the plates were rehydrated with buffer (20 mM Tris -HCl with pH 7.6, 0.01% […]
immobilized. After washing off the unbound oligonucleotide, the enzyme test was performed. The reaction volume of 30 μL in buffer (35 mM Tris-HCl with pH 7.5, 4 mM MgCl 2, 24 mM KCl, 2 […]
1.5 U of DNA gyrase from E. coli or S. aureus, 0.75 μg of relaxed pNO1 plasmid, and 3 μL solution of the inhibitor in 1 0% DMSO and 0.008% Tween 20. Reaction solutions were incubated at 37 °C […]
for 30 min. After that, the TF buffer (50 mM NaOAc with pH 5.0, 50 mM NaCl and 50 mM MgCl2) was added to terminate the enzymatic reaction. After additional incubation for 30 min at rt, during which biotin-oligonucleotide-plasmid triplex was formed, the unbound plasmid was washed off using TF buffer and SybrGOLD in T10 buffer (10 mM Tris HCl wit h pH 8.0 and 1 mM EDTA) was added. The fluorescence was measured with a microplate reader (BioTek Synergy H4, excitation: 485 nm, emission: 535 nm). […]
tested compounds. GraphPad Prism software was used to calculate the IC50 values. The result is given as the average value of three independent measurements. […]

in vitro = details: human, MCF-10A mammary gland epithelial cells (normal cell line)
EGFR = EGFR (Homo sapiens, UniProt P00533); assay: EGFR-TK inhibitory assay
EGFR, sequence (P00533 669-1210): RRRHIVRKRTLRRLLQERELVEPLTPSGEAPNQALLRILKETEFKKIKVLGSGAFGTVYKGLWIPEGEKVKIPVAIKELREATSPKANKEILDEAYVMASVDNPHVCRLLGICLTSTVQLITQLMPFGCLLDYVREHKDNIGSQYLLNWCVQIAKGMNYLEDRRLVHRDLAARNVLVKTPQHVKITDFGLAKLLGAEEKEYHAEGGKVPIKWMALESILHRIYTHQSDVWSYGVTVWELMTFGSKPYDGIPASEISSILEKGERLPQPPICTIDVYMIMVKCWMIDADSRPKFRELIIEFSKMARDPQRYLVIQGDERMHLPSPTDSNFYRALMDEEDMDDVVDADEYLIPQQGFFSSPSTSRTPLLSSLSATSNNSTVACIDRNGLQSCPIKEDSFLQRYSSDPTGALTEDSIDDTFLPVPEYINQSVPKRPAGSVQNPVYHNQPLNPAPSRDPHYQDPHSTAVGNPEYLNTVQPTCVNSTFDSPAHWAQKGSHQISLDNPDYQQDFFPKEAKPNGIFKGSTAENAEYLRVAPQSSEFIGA
Experimental: Baculoviral expression vectors including pBlueBacHis2B and pFASTBacHTc were used
5ʹ upstream to the EGFR sequence comprised a sequence that encoded (His)6. Sf-9 cells were infected for 72h for protein expression. The pellets of Sf-9 cells were solubilized in a buffer containing sodium vanadate (100 μM), aprotinin (10 μg/mL), triton (1%), HEPES buffer(50mM), ammonium molybdate (10 μM), benzamidine HCl (16 μg/mL), NaCl (10 mM),leupeptin (10 μg/mL) and pepstatin (10 μg/mL) at 0°C for 20 min at pH 7.4, followed by centrifugation for 20 min. To eliminate the nonspecifically bound material, a Ni-NTA super flow packed column was used to pass through and wash the crude extract supernatant first with 10mM and then with 100 mM imidazole. Histidine-linked proteins were first eluted with 250 and then with 500 mM imidazole subsequent to dialysis against NaCl (50 mM), HEPES (20 mM), glycerol (10%) and 1 μg/mL each of aprotinin, leupeptin and pepstatin for 120 min. The purification was performed either at 4 °C or on ice. To record autophosphorylation level, EGFR kinase assay was carried out on the basis of DELFIA/Time-Resolved Fluorometry. The compounds were first
dissolved in DMSO absolute, subsequent to dilution to appropriate concentration using HEPES
(25 mM) at pH 7.4. Each compound (10 μL) was incubated with recombinant enzyme (10 μL, 5
ng for EGFR, 1:80 dilution in 100 mM HEPES) for 10 min at 25 °C, subsequent to the addition of
5X buffer (10 μL, containing 2 mM MnCl2, 100 μM Na3VO4, 20 mM HEPES and 1 mM DTT)
and ATP-MgCl2 (20 μL, containing 0.1 mM ATP and 50 mM MgCl2) and incubation for 1h. The
negative and positive controls were included in each plate by the incubation of enzyme either with
or without ATP-MgCl2. The liquid was removed after incubation and the plates were washed
thrice using a wash buffer. The Europium-tagged antiphosphotyrosine antibody (75 μL, 400 ng)
(§9) was added to each well followed by incubation of 1h and then washing of the plates using buffer.
(§10) The enhancement solution was added to each well and the signal was recorded at excitation and
(§11) The autophosphorylation percentage inhibition by compounds was calculated using the following equation:
calculated. The majority of signals detected by antiphosphotyrosine antibody were from EGFR because the enzyme preparation contained low impurities.

VEGFR-2 = VEGFR-2 (Homo sapiens, UniProt P35968); assay: VEGFR-2 inhibitory assay
VEGFR-2, sequence (P35968 20-1356): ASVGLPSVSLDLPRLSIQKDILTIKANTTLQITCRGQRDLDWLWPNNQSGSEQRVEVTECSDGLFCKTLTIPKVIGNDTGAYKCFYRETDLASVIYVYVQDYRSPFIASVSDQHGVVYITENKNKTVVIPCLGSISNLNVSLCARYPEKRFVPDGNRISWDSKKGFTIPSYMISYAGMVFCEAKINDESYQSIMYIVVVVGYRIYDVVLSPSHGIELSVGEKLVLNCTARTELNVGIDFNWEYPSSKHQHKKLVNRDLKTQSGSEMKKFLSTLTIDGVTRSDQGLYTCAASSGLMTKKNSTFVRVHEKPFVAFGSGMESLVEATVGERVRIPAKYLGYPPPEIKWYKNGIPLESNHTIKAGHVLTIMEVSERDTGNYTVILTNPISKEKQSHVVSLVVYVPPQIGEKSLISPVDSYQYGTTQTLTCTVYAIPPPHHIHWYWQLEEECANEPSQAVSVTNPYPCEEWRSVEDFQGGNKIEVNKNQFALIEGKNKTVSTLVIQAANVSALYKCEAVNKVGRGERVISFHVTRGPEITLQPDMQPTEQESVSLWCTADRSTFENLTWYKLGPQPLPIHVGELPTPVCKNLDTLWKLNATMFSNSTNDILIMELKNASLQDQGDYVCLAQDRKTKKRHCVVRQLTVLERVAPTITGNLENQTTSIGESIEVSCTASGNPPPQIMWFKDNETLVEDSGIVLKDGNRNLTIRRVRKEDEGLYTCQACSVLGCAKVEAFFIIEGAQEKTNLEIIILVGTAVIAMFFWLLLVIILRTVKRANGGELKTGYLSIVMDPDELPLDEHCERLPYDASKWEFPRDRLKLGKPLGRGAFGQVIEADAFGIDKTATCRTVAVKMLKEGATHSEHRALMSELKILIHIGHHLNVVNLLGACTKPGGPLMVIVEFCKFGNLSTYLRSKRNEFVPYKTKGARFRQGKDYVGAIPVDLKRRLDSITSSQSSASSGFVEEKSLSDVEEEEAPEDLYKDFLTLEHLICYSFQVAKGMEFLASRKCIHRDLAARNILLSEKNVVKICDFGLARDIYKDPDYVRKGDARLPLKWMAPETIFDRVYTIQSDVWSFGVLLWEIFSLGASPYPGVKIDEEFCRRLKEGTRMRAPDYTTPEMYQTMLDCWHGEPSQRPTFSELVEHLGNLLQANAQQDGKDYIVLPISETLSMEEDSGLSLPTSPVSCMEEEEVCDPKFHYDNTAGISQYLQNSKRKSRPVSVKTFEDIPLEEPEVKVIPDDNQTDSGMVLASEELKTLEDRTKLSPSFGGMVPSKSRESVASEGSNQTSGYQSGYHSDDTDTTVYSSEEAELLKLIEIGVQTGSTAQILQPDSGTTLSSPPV
Experimental: The outcomes are presented as IC50 values.
as §9, §10, §11
Prepare all the solutions using autoclaved, deionized water and analytical grade reagents.
and store all the reagents at room temperature (unless indicated otherwise).
solution, add 5 mL ultra-pure water; 1×Kinase Assay Buffer: add 25 mL HEPES solution (1 M),
water, adjust pH to 7.5 and constant volume to 500 mL using ultrapure water; 4×Stop solution (40
mM): Mix 0.8 mL of the foregoing EDTA solution, 1 mL 10×Detection Buffer and 8.2 mL ultra-
pure water; 1×Detection Buffer: Mix 1 mL 10×Detection Buffer with 9 mL water; 4×VEGFR
μM) was added to 624 μL 1×Kinase Assay Buffer and mixed; 4×ULight™-labeled JAK1
(substrate) (200 nM, 25 times diluted): 24 μL ULight™-labeled JAK1 (mother liquor
concentration 5 μM) was added to 576 μL 1×Kinase Assay Buffer and mixed; 4×ATP Solution
(40 μM, 250 times diluted): add 3 μL ATP solution (10 mM) to 747 μL 1×Kinase Assay Buffer
2×substrate/ATP Mix: 560 μL foregoing 4×ULight™-labeled JAK1 and 560 μL 4×ATP solution
and mixed (prepared before use). The assays used an ULight-labeled peptide substrate and a
Europium-W1024-labeled antiphosphotyrosine antibody. The VEGFR-2 was purchased from
Carna Biosciences, Inc. (New York, USA). The 384-well plates were obtained from PerkinElmer.
5 μL 2×VEGFR-2 kinase solution (0.5 nM)
was added to 384-well plates homogeneous mixing and pre-reaction at room temperature for 30 min. Next, 2.5 μL 4×Ultra ULightTM-JAK-1(Tyr1023) Peptide (200 nM)/ATP (40 μM) was added to the corresponding wells of a 384-well plate. Negative control: 2.5 μL/well 4×substrate/ATP mixture and 7.5 μL 1×kinase assay buffer in 384-well plate well. Positive control:
μL/well 2×VEGFR-2 kinase solution was added to the 384-well plate, The final concentration of DMSO in the mixing system was 4%. After incubation at room temperature and dark for 60 min, 5 μL 4×stop solution was added to corresponding wells to react for 5 min and then 5 μL 4×detection mix was added to the corresponding wells of a 384-well plate. The mixture was centrifugally mixed and stayed for 60 min at room temperature for color development. The plate was read using a Envision plate reader. The inhibition rate (%) = (positive well reading-compound well reading)/(positive well reading-negative well reading)×100. The corresponding IC50 values were calculated using GraphPad Prism 5.0.

A-549 cells = assay: Antiproliferative MTT assay; details: Homo sapiens, A549, read-out: Antiproliferative activity IC50 ± SEM, A-549
Source text: (§12) Dose-response assays determined the IC50 values for the novel compounds. We derived the reported data from a minimum of two separate experiments, each consisting of three repetitions per concentration.
Assay for antiproliferative effect

MCF-7 cells = assay: Antiproliferative MTT assay; details: Homo sapiens, MCF7, read-out: Antiproliferative activity IC50 ± SEM, MCF-7
Source text: as §12
Assay for antiproliferative effect

Panc-1 cells = assay: Antiproliferative MTT assay; details: Homo sapiens, PANC-1, read-out: Antiproliferative activity IC50 ± SEM, Panc-1
Source text: as §12
Assay for antiproliferative effect

HT-29 cells = assay: Antiproliferative MTT assay; details: Homo sapiens, HT-29, read-out: Antiproliferative activity IC50 ± SEM, HT-29
Source text: as §12
Assay for antiproliferative effect

[1] = tested on: four cancer cell lines (A-549, MCF-7, Panc-1, HT-29); assay: Antiproliferative MTT assay, average over four cancer cell lines; details: for GI50: Homo sapiens, read-out: Antiproliferative activity, Average (GI50)
Source text: as §12
Assay for antiproliferative effect

B. subtilis = assay: MIC by twofold serial dilution; assay type: cell-based, Bacillus subtilis (ATCC 6051); details: for MIC: Bacillus subtilis, read-out: Minimum inhibitory concentration (MIC), B. subtilis; for MIC / Minimum inhibitory concentration (MIC), B. subtilis: Gram-positive
Experimental: (§1) The antibacterial efficacy of compounds 11b, 11e, and 12b was evaluated against Gram-positive bacteria (S. aureus and B. subtilis) and Gram-negative bacteria (E. coli and P. aeruginosa). Table 5 presents the MICs (nM) of these compounds against the evaluated bacteria, utilizing ciprofloxacin as the reference drug, determined through a twofold serial dilution approach on a 96-well microtiter plate ([Frejat F. O. et al., 2022]).
(§2) The antibacterial efficacy of compounds 11b, 11e, and 12b was evaluated against Gram-positive bacteria (S. aureus and B. subtilis) and Gram-negative bacteria (E. coli and P. aeruginosa). The MICs (nM) of the tested compounds against the evaluated bacteria were determined through a twofold serial dilution approach on a 96-well microtiter plate ([Frejat F. O. et al., 2022]). See Appendix A for more details.
(§3) 4.2. Antimicrobial activity
(§4) 4.2.1. Organisms and culture conditions […]
(§5) 4.2.2. Minimum inhibitory concentration assay
(§6) In 96-well microtiter plates and […] of fresh bacterial culture of a single McFarland unit overnight, a double serial dilution of each compound […] in sterile standard saline were prepared to every single source well. Ciprofloxacin antibiotic (5 mg / mL-1) and normal saline were included as standard reference in each assay. The plates were incubated at 37 0C overnight.
(§7) As an indicator of bacterial growth, […] of p -iodonitrotetrazolium violet (INT) was added to each well and incubated at 37 0C for 30 min. MIC values are recorded as the lowest concentration […]
(§8) tetrazolidium salt acts as an electron accepter and is reduced to a red colored formazan product by biological activity organisms. Where bacterial growth was inhibited, the solution in the well remained clear after incubation with INT. […]

S. aureus = assay: MIC by twofold serial dilution; assay type: cell-based, Staphylococcus aureus (ATCC 12600); details: Gram-positive; for MIC: Staphylococcus aureus, read-out: Minimum inhibitory concentration (MIC), S. aureus
Experimental: as §1, §2, §3, §4, §5, §6, §7, §8

E. coli = assay: MIC by twofold serial dilution; assay type: cell-based, Escherichia coli (ATCC 11775); details: Gram-negative; for MIC: Escherichia coli, read-out: Minimum inhibitory concentration (MIC), E. coli
Experimental: as §1, §2, §3, §4, §5, §6, §7, §8

P. aeruginosa = assay: MIC by twofold serial dilution; assay type: cell-based, Pseudomonas aeuroginosa (ATCC 10145); details: Gram-negative; for MIC: Pseudomonas aeruginosa, read-out: Minimum inhibitory concentration (MIC), P. aeruginosa
Experimental: as §1, §2, §3, §4, §5, §6, §7, §8

| Structure (SMILES) | remaining activity at 1 µM (E. coli DNA gyrase) | viability at 96 h, 50 µM (in vitro) | IC50 (A-549 cells) | IC50 (MCF-7 cells) | IC50 (Panc-1 cells) | IC50 (HT-29 cells) | GI50 [1] | IC50 (E. coli DNA gyrase) | MIC (B. subtilis) | MIC (S. aureus) | MIC (E. coli) | MIC (P. aeruginosa) | also measured |
| --- | --- | --- | --- | --- | --- | --- | --- | --- | --- | --- | --- | --- | --- |
| COc1ccc(/C=C/C(=O)c2sc(SCC(=O)c3cc4ccccc4o3)nc2C)cc1 [Compound 12c, (E)-1-(2-((2-(Benzofuran-2-yl)-2-oxoethyl)thio)-4-methylthiazol-5-yl)-3-(4-methoxyphenyl)prop-2-en-1-one] | 59% | 91% | 33 ± 2 nM | 39 ± 2 nM | 36 ± 2 nM | 37 ± 2 nM | 36 nM | – | – | – | – | – | IC50 (EGFR): 83 ± 3 nM; IC50 (VEGFR-2): 4050 ± 20 nM |
| C#Cc1cccc(Nc2ncnc3cc(OCCOC)c(OCCOC)cc23)c1 [Erlotinib, reference compound] | – | – | 30 ± 3 nM | 40 ± 3 nM | 30 ± 3 nM | 30 ± 3 nM | – | – | – | – | – | – | – |
| Cc1nc(SCC(=O)c2cc3ccccc3o2)sc1C(=O)/C=C/c1ccc(Cl)cc1 [Compound 12b, (E)-1-(2-((2-(Benzofuran-2-yl)-2-oxoethyl)thio)-4-methylthiazol-5-yl)-3-(4-chlorophenyl)prop-2-en-1-one] | – | 90% | 61 ± 5 nM | 68 ± 5 nM | 64 ± 5 nM | 65 ± 5 nM | 65 nM | 197 ± 12 nM | 0.029 ± 0.001 µM (≈ 0.0132 µg/mL) | 0.034 ± 0.002 µM (≈ 0.0154 µg/mL) | 0.062 ± 0.004 µM (≈ 0.0281 µg/mL) | 0.064 ± 0.004 µM (≈ 0.0291 µg/mL) | – |
| Cc1nc(SCC(=O)c2cc3ccccc3oc2=O)sc1C(=O)/C=C/c1ccccc1 [Compound 11a, (E)-3-(2-((5-Cinnamoyl-4-methylthiazol-2-yl)thio)acetyl)-2H-chromen-2-one] | 72% | 91% | 40 ± 2 nM | 48 ± 3 nM | 44 ± 3 nM | 44 ± 3 nM | 44 nM | – | – | – | – | – | IC50 (EGFR): 93 ± 4 nM; IC50 (VEGFR-2): 5200 ± 30 nM |
| Cc1nc(SCC(=O)c2cc3cc(Br)ccc3o2)sc1C(=O)/C=C/c1ccccc1 [Compound 12d, (E)-1-(2-((2-(5-Bromobenzofuran-2-yl)-2-oxoethyl)thio)-4-methylthiazol-5-yl)-3-phenylprop-2-en-1-one] | 65% | 90% | 45 ± 3 nM | 50 ± 3 nM | 48 ± 3 nM | 48 ± 3 nM | 48 nM | – | – | – | – | – | Fold less effective than 11d (GI50) [1]: 1.6 fold |
| COc1ccc(/C=C/C(=O)c2sc(SCC(=O)c3cc4cc(Br)ccc4o3)nc2C)cc1 [Compound 12f, (E)-1-(2-((2-(5-Bromobenzofuran-2-yl)-2-oxoethyl)thio)-4-methylthiazol-5-yl)-3-(4-methoxyphenyl)prop-2-en-1-one] | – | 92% | 55 ± 4 nM | 59 ± 4 nM | 56 ± 4 nM | 56 ± 4 nM | 57 nM | 208 ± 15 nM | – | – | – | – | Fold less effective than compound 11b (DNA gyrase IC50) (E. coli DNA gyrase): approximately 1.2 fold; Fold less potent than compound 11f (GI50) [1]: 2.1 fold |
| O=C(O)c1cn(C2CC2)c2cc(N3CCNCC3)c(F)cc2c1=O [Ciprofloxacin, reference compound] | – | – | – | – | – | – | – | – | 0.01 µM (≈ 0.00331 µg/mL) | 0.03 ± 0.002 µM (≈ 0.00994 µg/mL) | 0.06 ± 0.004 µM (≈ 0.0199 µg/mL) | 0.06 ± 0.004 µM (≈ 0.0199 µg/mL) | Minimum inhibitory concentration (MIC), B. subtilis (B. subtilis): 0.01 ± 0.001 µM (≈ 0.00331 µg/mL) |
| Cc1nc(SCC(=O)c2cc3cc(Br)ccc3o2)sc1C(=O)/C=C/c1ccc(Cl)cc1 [Compound 12e, (E)-1-(2-((2-(5-bromobenzofuran-2-yl)-2-oxoethyl)thio)-4-methylthiazol-5-yl)-3-(4-chlorophenyl)prop-2-en-1-one] | – | 94% | 60 ± 5 nM | 64 ± 5 nM | 62 ± 5 nM | 62 ± 5 nM | 62 nM | 217 ± 15 nM | – | – | – | – | Fold less effective than compound 11b (DNA gyrase IC50) (E. coli DNA gyrase): approximately 1.2 fold; Fold less efficient than 11e (GI50) [1]: 1.5 fold |
| Cc1nc(SCC(=O)c2cc3ccccc3oc2=O)sc1C(=O)/C=C/c1ccc(Cl)cc1 [Compound 11b, (E)-3-(2-((5-(3-(4-Chlorophenyl)acryloyl)-4-methylthiazol-2-yl)thio)acetyl)-2H-chromen-2-one] | – | 92% | 69 ± 6 nM | 74 ± 6 nM | 70 ± 6 nM | 72 ± 6 nM | 71 nM | 182 ± 13 nM | 0.018 µM (≈ 0.00868 µg/mL) | 0.023 µM (≈ 0.0111 µg/mL) | 0.042 µM (≈ 0.0202 µg/mL) | 0.045 µM (≈ 0.0217 µg/mL) | Fold less effective than novobiocin (DNA gyrase IC50) (E. coli DNA gyrase): 1.1 fold; Fold less efficient than ciprofloxacin (MIC), B. subtilis (B. subtilis): 1.8 fold; Minimum inhibitory concentration (MIC), B. subtilis (B. subtilis): 0.018 ± 0.001 µM (≈ 0.00868 µg/mL); Minimum inhibitory concentration (MIC), S. aureus (S. aureus): 0.023 ± 0.001 µM (≈ 0.0111 µg/mL); Minimum inhibitory concentration (MIC), E. coli (E. coli): 0.042 ± 0.003 µM (≈ 0.0202 µg/mL); Minimum inhibitory concentration (MIC), P. aeruginosa (P. aeruginosa): 0.045 ± 0.003 µM (≈ 0.0217 µg/mL) |
| Cc1nc(SCC(=O)c2cc3ccccc3o2)sc1C(=O)/C=C/c1ccccc1 [Compound 12a, (E)-1-(2-((2-(Benzofuran-2-yl)-2-oxoethyl)thio)-4-methylthiazol-5-yl)-3-phenylprop-2-en-1-one] | 61% | 93% | 65 ± 5 nM | 70 ± 5 nM | 66 ± 5 nM | 66 ± 5 nM | 67 nM | – | – | – | – | – | – |
